Assay results: patent US20250281424A1 (New York Blood Center, Inc, priority 2020, published 2025)

Biological target: T1, human PF4 (Homo sapiens, UniProt P02776)
T1 construct: PF4 is a 70 amino acid, lysine-rich 7.8 kDa platelet-specific protein; made in house; host or cells: Escherichia coli BL21DE3 pLysS (pT7-7) and/or Drosophila S2 cells
T1 sequence (P02776 32-101): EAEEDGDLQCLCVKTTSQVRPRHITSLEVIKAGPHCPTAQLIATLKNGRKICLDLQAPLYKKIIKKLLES
Experiment: Inhibition of PF4 tetramer formation (BS3 cross-linking, SDS-PAGE)
Assay type: biochemical
Details: for inhibition at 1 µM: 1 μM inhibitor; for inhibition at 1 µM / inhibition at 3 µM / inhibition at 5 µM / inhibition at 10 µM: read-out: % inhibition of PF4 tetramer formation at single concentration of inhibitor; for inhibition at 3 µM: 3 μM inhibitor (column A); for inhibition at 5 µM: 5 μM inhibitor; for inhibition at 10 µM: 10 μM inhibitor (column A); for IC50: read-out: IC50 of PF4 tetramer formation inhibition
Outline: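 Recombinant human wild-type PF4 (E. coli-expressed, heparin-purified), 10 μg/ml in PBS, incubated with compound 15 min at 37° C or 60 min at room temperature, then cross-linked with 0.2 mM BS3 for 30 min at room temperature. Reducing 12% SDS-PAGE; bands quantified as % tetramer, trimer, dimer, monomer versus compound-free control.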

| inhibition at 5 µM | inhibition at 10 µM | IC50 | SMILES | inhibition at 1 µM | inhibition at 3 µM |
| --- | --- | --- | --- | --- | --- |
| – | – | – | CC(=O)C1C(=O)c2cc(S(=O)(=O)c3cnc4c(c3)C(=O)C(C(C)=O)C4=O)cnc2C1=O (centres unmarked) [Example 301, 6-acetyl-3-({6-acetyl-5,7-dioxo-5H,6H,7H-cyclopenta[b]pyridin-3-yl}sulfonyl)-5H,6H,7H-cyclopenta[b]pyridine-5,7-dione] | 23% | 30% |
| 74% | 79% | ~3 µM | CC(C)C(=O)NCC(=O)C1C(=O)c2ccc(S(=O)(=O)c3ccc4c(c3)C(=O)C(C(=O)CNC(=O)C(C)C)C4=O)cc2C1=O (centres unmarked) [Example 191, 2-methyl-N-{2-[5-({2-[2-(2-methylpropanamido)acetyl]-1,3-dioxo-2,3-dihydro-1H-inden-5-yl}sulfonyl)-1,3-dioxo-2,3-dihydro-1H-inden-2-yl]-2-oxoethyl}propanamide] | – | – |
| 43% | 52% | – | O=C(c1ccc2c(c1)C(=O)C(C(=O)NC1CCOCC1)C2=O)c1ccc2c(c1)C(=O)C(C(=O)NC1CCOCC1)C2=O (centres unmarked) [Example 72, 5,5′-carbonylbis(1,3-dioxo-n-(tetrahydro-2h-pyran-4-yl)-2,3-dihydro-1h-indene-2-carboxamide)] | – | – |
| – | – | – | CC(C)(C)OC(=O)NCC(=O)C1C(=O)c2ccc(C#Cc3ccc4c(c3)C(=O)C(C(=O)CNC(=O)OC(C)(C)C)C4=O)cc2C1=O (centres unmarked) [Example 319, tert-butyl N-[2-(5-{2-[2-(2-{[(tert-butoxy)carbonyl]amino}acetyl)-1,3-dioxo-2,3-dihydro-1H-inden-5-yl]ethynyl}-1,3-dioxo-2,3-dihydro-1H-inden-2-yl)-2-oxoethyl]carbamate] | 13% | 22% |
| – | – | – | CC(C)(C)OC(=O)N1CC[C@H]1C(=O)C1C(=O)c2ccc(Oc3ccc4c(c3)C(=O)C(C(=O)[C@@H]3CCN3C(=O)OC(C)(C)C)C4=O)cc2C1=O (stereo partly drawn) [Example 273, tert-butyl (2S)-2-[5-({2-[(2S)-1-[(tert-butoxy)carbonyl]azetidine-2-carbonyl]-1,3-dioxo-2,3-dihydro-1H-inden-5-yl}oxy)-1,3-dioxo-2,3-dihydro-1H-indene-2-carbonyl]azetidine-1-carboxylate] | 20% | 20% |
| – | – | – | CC(C(=O)C1C(=O)c2ccc(S(=O)(=O)c3ccc4c(c3)C(=O)C(C(=O)C(C)c3ccc(F)cc3)C4=O)cc2C1=O)c1ccc(F)cc1 (centres unmarked) [Example 243, 2-[2-(4-fluorophenyl)propanoyl]-5-({2-[2-(4-fluorophenyl)propanoyl]-1,3-dioxo-2,3-dihydro-1H-inden-5-yl}sulfonyl)-2,3-dihydro-1H-indene-1,3-dione] | 19% | 21% |
| 27% | 46% | – | O=C(c1ccc2c(c1)C(=O)C(C(=O)NC1CC1)C2=O)c1ccc2c(c1)C(=O)C(C(=O)NC1CC1)C2=O (centres unmarked) [Example 21, 5,5′-carbonylbis(1,3-dioxo-indan-2-carboxylic acid (cyclopropyl)-amide)] | – | – |
| 68% | 91% | 5 µM | COC(=O)C(C)(C)CC(=O)C1C(=O)c2ccc(C(=O)c3ccc4c(c3)C(=O)C(C(=O)CC(C)(C)C(=O)OC)C4=O)cc2C1=O (centres unmarked) [Example 219] | – | – |
| – | – | – | C[C@H](NC(=O)C1C(=O)c2ccc(C(=O)c3ccc4c(c3)C(=O)C(C(=O)N[C@@H](C)C(=O)O)C4=O)cc2C1=O)C(=O)O (stereo partly drawn) [Example 316, (2S)-2-{[5-(2-{[(1S)-1-carboxyethyl]carbamoyl}-1,3-dioxo-2,3-dihydro-1H-indene-5-carbonyl)-1,3-dioxo-2,3-dihydro-1H-inden-2-yl]formamido}propanoic acid] | 25% | 50% |
| 75% | 75% | 3.3 µM | CC[C@H](NC(=O)OCc1ccccc1)C(=O)C1C(=O)c2ccc(C(=O)c3ccc4c(c3)C(=O)C(C(=O)[C@H](CC)NC(=O)OCc3ccccc3)C4=O)cc2C1=O (stereo partly drawn) [Example 165, benzyl N—[(S)-1-(5-{2-[(2S)-2-{[(benzyloxy)carbonyl]amino}butanoyl]-1,3-dioxo-2,3-dihydro-1H-indene-5-carbonyl}-1,3-dioxo-2,3-dihydro-1H-inden-2-yl)-1-oxobutan-2-yl]carbamate] | – | – |
| 2% | 85% | 1 µM | O=C(c1ccc2c(c1)C(=O)C(C(=O)NC1CCCC1)C2=O)c1ccc2c(c1)C(=O)C(C(=O)NC1CCCC1)C2=O (centres unmarked) [Example 71, 5,5′-carbonylbis(n-cyclopentyl-1,3-dioxo-2,3-dihydro-1h-indene-2-carboxamide)] | – | – |
| – | – | 3 µM | COCC(=O)C1C(=O)c2ccc(Oc3ccc4c(c3)C(=O)C(C(=O)COC)C4=O)cc2C1=O (centres unmarked) [Example 249, 2-(2-methoxyacetyl)-5-{[2-(2-methoxyacetyl)-1,3-dioxo-2,3-dihydro-1H-inden-5-yl]oxy}-2,3-dihydro-1H-indene-1,3-dione] | 19% | 36% |
| – | – | – | CCC(=O)C1C(=O)c2ccc(Oc3ccc4c(c3)C(=O)C(C(=O)CC)C4=O)cc2C1=O (centres unmarked) [Example 323, 5-[(1,3-dioxo-2-propanoyl-2,3-dihydro-1H-inden-5-yl)oxy]-2-propanoyl-2,3-dihydro-1H-indene-1,3-dione] | 7% | 18% |
| – | 73% | – | O=C(O)CNC(=O)C1C(=O)c2ccc(S(=O)(=O)c3ccc4c(c3)C(=O)C(C(=O)NCC(=O)O)C4=O)cc2C1=O (centres unmarked) [Example 311, 2-{[5-({2-[(carboxymethyl)carbamoyl]-1,3-dioxo-2,3-dihydro-1H-inden-5-yl}sulfonyl)-1,3-dioxo-2,3-dihydro-1H-inden-2-yl]formamido}acetic acid] | – | – |
| – | – | – | COCCOCCN(CC(=O)C1C(=O)c2ccc(S(=O)(=O)c3ccc4c(c3)C(=O)C(C(=O)CN(CCOCCOC)C(=O)OC(C)(C)C)C4=O)cc2C1=O)C(=O)OC(C)(C)C (centres unmarked) [Example 392, tert-butyl N-{2-[5-({2-[2-(11,11-dimethyl-9-oxo-2,5,10-trioxa-8-azadodecan-8-yl)acetyl]-1,3-dioxo-2,3-dihydro-1H-inden-5-yl}sulfonyl)-1,3-dioxo-2,3-dihydro-1H-inden-2-yl]-2-oxoethyl}-N-[2-(2-methoxyethoxy)ethyl]carbamate] | 1% | 1% |
| – | – | – | O=C1c2ccc(S(=O)(=O)c3ccc4c(c3)C(=O)C(C(=S)NC3CC3)C4=O)cc2C(=O)C1C(=S)NC1CC1 (centres unmarked) [Example 329, N-cyclopropyl-5-{[2-(cyclopropylcarbamothioyl)-1,3-dioxo-2,3-dihydro-1H-inden-5-yl]sulfonyl}-1,3-dioxo-2,3-dihydro-1H-indene-2-carbothioamide] | 22% | 50% |
| 83% | 89% | 5.11 µM | O=C(c1ccc2c(c1)C(=O)C(C(=O)NCCCc1ccccc1)C2=O)c1ccc2c(c1)C(=O)C(C(=O)NCCCc1ccccc1)C2=O (centres unmarked) [Example 24, 5,5′-carbonylbis(1,3-dioxo-indan-2-carboxylic acid (3-(phenyl)propyl)-amide)] | – | – |
| 74% | 88% | 1.07 µM | Cc1cccc(NC(=O)C2C(=O)c3ccc(C(=O)c4ccc5c(c4)C(=O)C(C(=O)Nc4cccc(C)c4)C5=O)cc3C2=O)c1 (centres unmarked) [Example 38, 5,5′-carbonylbis(1,3-dioxo-n-(m-tolyl)-2,3-dihydro-1h-indene-2-carboxamide)] | – | – |
| – | – | – | CCOCC(=O)C1C(=O)c2ccc(C(=O)c3ccc4c(c3)C(=O)C(C(=O)COCC)C4=O)cc2C1=O (centres unmarked) [Example 229, 2-(2-ethoxyacetyl)-5-[2-(2-ethoxyacetyl)-1,3-dioxo-2,3-dihydro-1H-indene-5-carbonyl]-2,3-dihydro-1H-indene-1,3-dione] | 43% | 53% |

| SMILES | inhibition at 5 µM | inhibition at 10 µM | IC50 | inhibition at 1 µM | inhibition at 3 µM |
| --- | --- | --- | --- | --- | --- |
| CC(C)(C)OC(=O)N[C@@H](CC(=O)O)C(=O)C1C(=O)c2ccc(C(=O)c3ccc4c(c3)C(=O)C(C(=O)[C@H](CC(=O)O)NC(=O)OC(C)(C)C)C4=O)cc2C1=O (stereo partly drawn) [Example 188, (3S)-3-{[(tert-butoxy)carbonyl]amino}-4-(5-{2-[(2S)-2-{[(tert-butoxy)carbonyl]amino}-3-carboxypropanoyl]-1,3-dioxo-2,3-dihydro-1H-indene-5-carbonyl}-1,3-dioxo-2,3-dihydro-1H-inden-2-yl)-4-oxobutanoic acid] | 88% | 94% | 2.3 µM | – | – |
| O=C1c2ccc(S(=O)(=O)c3ccc4c(c3)C(=O)C(C(=O)C3CCCCC3)C4=O)cc2C(=O)C1C(=O)C1CCCCC1 (centres unmarked) [Example 288, 2-cyclohexanecarbonyl-5-[(2-cyclohexanecarbonyl-1,3-dioxo-2,3-dihydro-1H-inden-5-yl)sulfonyl]-2,3-dihydro-1H-indene-1,3-dione] | – | – | 3 µM | 10% | 15% |
| C[C@H]1C[C@@H](C(=O)C2C(=O)c3ccc(C(=O)c4ccc5c(c4)C(=O)C(C(=O)[C@@H]4C[C@H](C)CN4C(=O)OC(C)(C)C)C5=O)cc3C2=O)N(C(=O)OC(C)(C)C)C1 (stereo partly drawn) [Example 132, tert-butyl (2S,4S)-2-(5-{2-[(2S,4S)-1-[(tert-butoxy)carbonyl]-4-methylpyrrolidine-2-carbonyl]-1,3-dioxo-2,3-dihydro-1H-indene-5-carbonyl}-1,3-dioxo-2,3-dihydro-1H-indene-2-carbonyl)-4-methylpyrrolidine-1-carboxylate] | 79% | 88% | 3.5 µM | – | – |
